Values quoted from earlier work, collected in patent US4994542A, “Surgical adhesive” (Asahi Glass Co., Ltd., priority 1988, dated 1991).

What was measured:
[1] = aromatic polyisocyanates, general statement
[2] = hydrolysis products of TDI and MDI

Row | Substance | mutagenic activity [1] | activity in a microbial mutagenicity test (Ames test) [2]
1 | diphenylmethane diisocyanates [MDI] | high mutagenic activity | 
2 | diaminodiphenylmethane |  | high activity
3 | tolylene diamine |  | high activity
4 | tolylene diisocyanates [TDI] | high mutagenic activity | 
